Measurements reported in paper PMC6915745, “TRIB3 supports breast cancer stemness by suppressing FOXO1 degradation and enhancing SOX2 transcription” (Nature Communications, 2019).
Where two headings read alike, the source gives them in different places. Peptide text beside a SMILES is read from it. * marks the point of attachment. Cbz = O=C(OCc1ccccc1)*

Columns and labels:
[1] = test system: TRIB3-silenced MCF7 cells; experiment: Immunoblot of AKT1/FOXO1/SOX2, TRIB3-silenced MCF7 cells with AKT1 inhibitor MK2206; type: cell-based, human; settings: Fig.6e, MCF7, TRIB3-shRNA, v.s CTRL-shRNA+DMSO
Excerpt: (§1) Fig. 6 TRIB3 abrogates the AKT-FOXO1 interaction. a Supervised clustering of MCF7 cells transfected with CTRL-shRNA or TRIB3-shRNA using the log2-transformed values for genes in the FOXO1 upstream pathway, including AMPK, ERK, PI3K, p38, and JNK clustered genes expressed in all samples. Each column represents a separate case. Z-scores from IPA depicting the subnetwork gene expression differences between CTRL-shRNA and TRIB3-shRNA cases. The Z-score heat map depicts the five FOXO1 upstream subnetworks. Each row represents the data for the subnetwork indicated in the right margin. b, c TRIB3 inhibited the activity of AKT1 in BCCs. The indicated stable expression cell extracts were prepared and the levels of the indicated proteins were detected by immunoblotting. d, e The effects of the AKT1 agonist or antagonist for TRIB3-FOXO1-SOX2 axis in BCCs. The indicated cells were treated with the AKT1 agonist SC79 or the antagonist MK2206 for 24 h. […] HMLE cell extracts were IP with an anti-AKT1 Ab and blotted with an anti-TRIB3 or anti-FOXO1 Ab in the presence of the indicated concentration of the TRIB3-GST protein. Data are shown as the mean ± SEM; P > 0.05 was considered not significant (NS); *P < 0.05, **P < 0.01, and ***P < 0.001 compared with the vector or CTRL-shRNA group. Source data are provided as a Source Data file.
(§2) Cycloheximide (CHX; Sigma Aldrich, R750107) was used as a protein synthesis inhibitor to assess the stability of the existing proteins. To assess protein stability, cells were treated with 20 μM CHX and the proteasome inhibitor MG132 (Sigma Aldrich, R750107) at 10 μM or the autophagy inhibitor BAF (Sigma Aldrich, B1793) at 200 nM for the indicated times. Protein expression was assessed via immunoblot analysis with cell lysates (20–60 μg) prepared in RIPA lysis buffer containing protease inhibitors (Roche) using anti-SOX2 (3529), anti-NANOG (4903), anti-OCT4 (2750), anti-KLF4 (4038), anti-c-Myc (13987), anti-FOXO1 (2880), anti-p-FOXO1 (9461), anti-AKT (4685), anti-p-AKT (4060), anti-β-ACTIN (4970), anti-Ubiquitin (3936), or anti-LaminA/C (4777) antibodies from CST; anti-TRIB3 antibody (ab75846) from Abcam; and anti-Trib3 antibody (PA5-15480) from Thermo Fisher Scientific[59]. All antibodies were used at 1:1000 dilution, with the exception of anti-β-Actin antibodies, which were used at 1:2000 dilution. The protein concentrations were determined by BCA Protein Assay Kits (Pierce). Proteins were separated by SDS-polyacrylamide gel electrophoresis (PAGE) and transferred to polyvinylidene difluoride membrane.

[2] = test system: FOXO1; experiment: FOXO1 protein stability (cycloheximide chase), MCF7 cells; type: cell-based, human; settings: for FOXO1 half-life: CHX, authors' reply to reviewers, control about 3 hr
Method: Fig. 5 TRIB3 stabilizes the FOXO1 protein by suppressing its ubiquitination. a, b HMLE cells transfected with a TRIB3-expressing vector vs. a control vector (a) or MCF7 cells transfected with TRIB3-shRNA vs. CTRL-shRNA (b) were incubated with 20 μM cycloheximide (CHX) for the indicated times. c, d The effect of TRIB3 depletion on FOXO1 degradation in vitro. MCF7 cells (c) were incubated with CHX (20 μM), CHX plus bafilomycin (BAF, 200 nM), or MG132 (10 μM) for the indicated times. Control or TRIB3-silenced MCF7 cells (d, top) and MDA-MB-231 cells (d, bottom) were incubated with DMSO, 200 nM BAF, or 10 μM MG132 for 8 h. The indicated proteins were detected by immunoblotting. e, f FOXO1 activity in HMLE cells (e) transfected with a control vector or a TRIB3-expressing vector, or in MCF7 cells (f) transfected with CTRL-shRNA or TRIB3-shRNA and either a control vector or a FOXO1-expressing vector. g, h The effect of TRIB3 on FOXO1 ubiquitination. HMLE (g) or MCF7 cells (h) were transfected with the indicated plasmid. His-ubiquitin-conjugated proteins were pulled down from cell lysates. Total protein lysates and Ni-NTA-agarose eluates were immunoblotted for FLAG, His, and TRIB3. Source data are provided as a Source Data file. […] I left them out because their labels are genetic constructs, not substances; their digits are also small
as §2

[3] = test system: TRIB3; experiment: TRIB3 expression after cytokines or stressors, MCF7 cells (WB); type: cell-based, human; settings: cytokines 8 hr, high glucose 24 hr
Method: as §2, with “membrane. […]” for “membrane.”
(f, g) The expression of
TRIB3 in MCF7 cells (top) or MDA-MB-231 cells (bottom) treated with various concentrations of IL6 for
8 hr (f) or 10 ng/ml IL-6 for different amounts of time (g) was detected by WB. (h) Silencing TRIB3
decreased the tumor sphere formation ability of MCF7 cells with or without IL-6 stimulation. […]
Data are shown as the mean ± SEM; P>0.05 was considered not significant (N.S.); *P<0.05, **P<0.01
and ***P<0.001, compared with the con group in panels d-f. Source data are provided as a Source Data

[4] = test system: MCF7 cells; experiment: TRIB3/AKT/FOXO1/SOX2 axis after IL-6, CoCl2 or high glucose, MCF7 cells (WB); type: cell-based, human
[5] = test system: FOXO1; experiment: FOXO1 immunoblot in control or TRIB3-silenced MDA-MB-231 cells with BAF or MG132; type: cell-based; settings: BAF 200 nM or MG132 10 μM, 8 h, in words
Method: (§3) Fig. 5 TRIB3 stabilizes the FOXO1 protein by suppressing its ubiquitination. a, b HMLE cells transfected with a TRIB3-expressing vector vs. a control vector (a) or MCF7 cells transfected with TRIB3-shRNA vs. CTRL-shRNA (b) were incubated with 20 μM cycloheximide (CHX) for the indicated times. c, d The effect of TRIB3 depletion on FOXO1 degradation in vitro. MCF7 cells (c) were incubated with CHX (20 μM), CHX plus bafilomycin (BAF, 200 nM), or MG132 (10 μM) for the indicated times. Control or TRIB3-silenced MCF7 cells (d, top) and MDA-MB-231 cells (d, bottom) were incubated with DMSO, 200 nM BAF, or 10 μM MG132 for 8 h. The indicated proteins were detected by immunoblotting. e, f FOXO1 activity in HMLE cells (e) transfected with a control vector or a TRIB3-expressing vector, or in MCF7 cells (f) transfected with CTRL-shRNA or TRIB3-shRNA and either a control vector or a FOXO1-expressing vector. g, h The effect of TRIB3 on FOXO1 ubiquitination. HMLE (g) or MCF7 cells (h) were transfected with the indicated plasmid. His-ubiquitin-conjugated proteins were pulled down from cell lysates. Total protein lysates and Ni-NTA-agarose eluates were immunoblotted for FLAG, His, and TRIB3. […]
(§4) Cycloheximide (CHX; Sigma Aldrich, R750107) was used as a protein synthesis inhibitor to assess the stability of the existing proteins. […] The protein concentrations were determined by BCA Protein Assay Kits (Pierce). […]

[6] = test system: FOXO1; experiment: FOXO1 immunoblot in control or TRIB3-silenced MCF7 cells with BAF or MG132; type: cell-based, human; settings: BAF 200 nM or MG132 10 μM, 8 h, in words
Method: as §3, §4

[7] = test system: HMLE cells overexpressing TRIB3; experiment: Immunoblot of AKT1/FOXO1/SOX2, HMLE cells with AKT1 agonist SC79; type: cell-based, human; settings: for Relative fold change AKT1 / Relative fold change FOXO1 / Relative fold change SOX2 / Relative fold change TRIB3 / Relative fold change p-AKT(473S) / Relative fold change p-FOXO1(256S): Fig.6d, HMLE, TRIB3-shRNA, v.s CTRL-shRNA+DMSO
Excerpt: as §1, §2

[8] = biological target: T1, TRIB3-GST protein (UniProt Q96RU7 1-358); experiment: SPR
T1 chain: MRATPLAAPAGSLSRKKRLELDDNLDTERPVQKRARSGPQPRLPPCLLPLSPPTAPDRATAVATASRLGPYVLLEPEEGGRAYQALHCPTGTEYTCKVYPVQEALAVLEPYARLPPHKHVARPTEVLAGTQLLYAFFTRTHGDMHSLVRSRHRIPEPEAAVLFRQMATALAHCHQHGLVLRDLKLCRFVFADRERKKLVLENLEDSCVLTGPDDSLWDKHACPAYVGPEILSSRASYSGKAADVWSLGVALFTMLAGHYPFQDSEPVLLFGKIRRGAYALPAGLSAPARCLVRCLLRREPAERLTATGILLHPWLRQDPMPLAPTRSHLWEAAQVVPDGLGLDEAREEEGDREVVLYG

[9] = HMLE cells overexpressing TRIB3, 24 h

NC1(c2ccc(-c3nc4ccn5c(=O)[nH]nc5c4cc3-c3ccccc3)cc2)CCC1 [MK-2206]
Relative fold change AKT1 ([1]; replicate 1): 0.657 | Relative fold change FOXO1 ([1]; replicate 1): 1.341 | Relative fold change SOX2 ([1]; replicate 1): 0.604 | Relative fold change TRIB3 ([1]; replicate 1): 0.180 | Relative fold change p-AKT(473S) ([1]; replicate 1): 0.243 | Relative fold change p-FOXO1(256S) ([1]; replicate 1): 0.564 | Relative fold change AKT1 ([1]; replicate 2): 0.717 | Relative fold change FOXO1 ([1]; replicate 2): 1.441 | Relative fold change SOX2 ([1]; replicate 2): 0.664 | Relative fold change TRIB3 ([1]; replicate 2): 0.200 | Relative fold change p-AKT(473S) ([1]; replicate 2): 0.263 | Relative fold change p-FOXO1(256S) ([1]; replicate 2): 0.614 | Relative fold change AKT1 ([1]; replicate 3): 0.597 | Relative fold change FOXO1 ([1]; replicate 3): 1.241 | Relative fold change SOX2 ([1]; replicate 3): 0.544 | Relative fold change TRIB3 ([1]; replicate 3): 0.160 | Relative fold change p-AKT(473S) ([1]; replicate 3): 0.223 | Relative fold change p-FOXO1(256S) ([1]; replicate 3): 0.514

O=c1cc(N2CCOCC2)oc2c(-c3ccccc3)cccc12 [LY294002]
FOXO1 half-life [2]: 4.4 h

tumor necrosis factor-α
TRIB3 expression [3]: enhanced TRIB3 expression in MCF7 cells

OC[C@H]1OC(O)[C@H](O)[C@@H](O)[C@@H]1O (stereo partly drawn) [high glucose, glucose]
TRIB3 expression [3]: enhanced TRIB3 expression in MCF7 cells | expressions of FOXO1 and SOX2 ([4]; MCF7 cells, IL-6 12 hr, CoCl2 24 hr, high glucose 24 hr, WB): enhanced expressions of FOXO1 and SOX2 | expressions of FOXO1 and SOX2 ([4]; MCF7 cells, IL-6 12 hr, CoCl2 24 hr, high glucose 24 hr, WB, listed as high-glucose): enhance | activity of FOXO1 S256 ([4]; MCF7 cells, IL-6 12 hr, high glucose 24 hr, WB): reduced the activity of FOXO1^S256

IL-1β: cytokine
TRIB3 expression [3]: enhanced TRIB3 expression in MCF7 cells

CC(C)C[C@@H](C=O)NC(=O)[C@H](CC(C)C)NC(=O)[C@H](CC(C)C)NC(=O)OCc1ccccc1 [MG132] (Cbz-Leu-Leu-Leu-aldehyde)
inhibition of FOXO1 reduction caused by TRIB3 silencing [5]: inhibited by MG132 | degradation of FOXO1 ([2]; CHX 20 μM plus BAF 200 nM or MG132 10 μM, in words): inhibited by the proteasome inhibitor MG132 | FOXO1 half-life [2]: 6 h | inhibition of FOXO1 reduction caused by TRIB3 silencing [6]: inhibited by MG132

CCOC(=O)C1=C(N)Oc2ccc(Cl)cc2C1C(C#N)C(=O)OCC (stereo not drawn) [SC79]
Relative fold change AKT1 ([7]; replicate 1): 1.9500 | Relative fold change FOXO1 ([7]; replicate 1): 0.4880 | Relative fold change SOX2 ([7]; replicate 1): 5.8119 | Relative fold change TRIB3 ([7]; replicate 1): 6.9492 | Relative fold change p-AKT(473S) ([7]; replicate 1): 1.6733 | Relative fold change p-FOXO1(256S) ([7]; replicate 1): 1.9882 | Relative fold change AKT1 ([7]; replicate 2): 2.1500 | Relative fold change FOXO1 ([7]; replicate 2): 0.5280 | Relative fold change SOX2 ([7]; replicate 2): 6.4119 | Relative fold change TRIB3 ([7]; replicate 2): 7.5492 | Relative fold change p-AKT(473S) ([7]; replicate 2): 1.7733 | Relative fold change p-FOXO1(256S) ([7]; replicate 2): 2.1782 | Relative fold change AKT1 ([7]; replicate 3): 1.7500 | Relative fold change FOXO1 ([7]; replicate 3): 0.4480 | Relative fold change SOX2 ([7]; replicate 3): 5.2119 | Relative fold change TRIB3 ([7]; replicate 3): 6.3492 | Relative fold change p-AKT(473S) ([7]; replicate 3): 1.5733 | Relative fold change p-FOXO1(256S) ([7]; replicate 3): 1.7982 | FOXO1 and SOX2 expression [7, 9]: inhibited FOXO1 and SOX2 expression | activity of AKT1 S473 and FOXO1 S256 [7, 9]: rescued the activity of AKT1^S473 and FOXO1^S256

transforming growth factor-β
TRIB3 expression [3]: enhanced TRIB3 expression in MCF7 cells

[Cl-].[Cl-].[Co+2] [CoCl2, reference compound]
expressions of FOXO1 and SOX2 [4]: enhance

EVAATLTENRVLQN [M3]
Kd [8]: 170 nM

EVAHTLTENRALQN [M10]
Kd [8]: 750 nM

VAHTLTENRVLQN [peptide Ae]
Kd [8]: 300 nM
